Holding throughout (format): cell-based
Test [1] concerns full thickness human skin. Nature of the test: Skin pigmentation in full thickness human skin organ culture. The following applies: beta arbutin 1% vs vehicle, day 6 of organ culture. The source says:
FIG. 2(A) depicts human skin treated with beta arbutin 1% vs negative control (“vehicle”) at day 6 of organ culture.
Beta arbutin (hydroquinone glucoside), a recognized inhibitor of tyrosinase, has been selected as positive control for skin lightening.

Test [2] relates to pig skin samples. Kind of test: Skin pigmentation (melanin, Fontana-Masson staining) in pig skin organ culture. Conditions: Pietrain dorsal pig skin, 1% w/v topical, re-applied daily. As for the experimental part: For this experiment, full thickness pig skin has been excised from dorsal part of a pig with 30±5 follicles/cm^2 (age: 8 weeks; weight: 24 kg). The skin samples have been cut under sterile condition in smaller pieces (surface: 4×4; thickness: 3 mm) and placed in a 6 wells plate (two samples per well) over a sterilized cotton immerse in 5 ml of culture medium, incubated at 37° C., 5% CO2, 100% humidity, as described above. Culture medium has been renewed every other day.
Thus, 10 μl of beta arbutin (1% w/v in culture medium) per sample has been added topically and re-applied daily. As negative control, culture medium has been applied topically by following the same experimental procedures as for beta-arbutin. Six pig skin samples have been used for each treatment (i.e. beta arbutin and culture medium).
The pig skin samples were incubated for either 2 or 6 days respectively.
Following organ culture procedure, skin samples have been embedded in cryomedium by using liquid nitrogen. […]
The amount of melanin present in each slide has been evaluated by measuring the areas covered by the black spots, by using the software ImageJ (National Institute of Health, US). […]
The data from all samples of the same experimental group have been pooled and the means ±SEM calculated. The statistical significance (P-value) was been determined by Mann-Whitney U test for nonparametric samples. […]

For test [3], the system named is hair follicle matrix cells in pig skin organ culture. Nature of the test: Hair follicle matrix cell proliferation (Ki67/DAPI double staining) in pig skin organ culture. Conditions: 25 ng/ml in culture medium.
Procedure: For this experiment, full thickness skin samples had been excised from dorsal part of a pig with 30±5 follicles/cm^2 (age: 8 weeks; weight: 22 kg).
As a consequence, changes in the proliferation rate of hair follicles matrix cells have been investigated in pig skin organ culture following incubation with recognized modulators of hair growth.
Two different experimental procedures have been investigated:
I. In the first experiment, the pig skin samples had been incubated with the potential modulators from day 0 to day 6.
II. In the second experiment, the skin had been kept in culture until day 14. Then, the skin has been incubated with the potential modulators up day 21.
Following the organ culture procedure, skin samples had been embedded in cryomedium by using liquid nitrogen. Embedded samples had been cut in thin slides (thickness: 7 μm) and were then immunolabelled by performing Ki67/DAPI double staining to detect proliferative cells localized on the bulb region. In particular, while Ki67 labels proliferating cells, DAPI stains all cell nuclei. Quantitative analysis has been performed by using a custom modified version of the software ImageJ (National Institute of Health, US). The data from all samples of the same experimental group have been pooled and the means ±SEM calculated. The statistical significance (P-value) has been determined by Mann-Whitney U test for nonparametric samples. […]

This is an account of results in patent US20080138850A1, “Skin Model” (SYMRISE GmbH & Co. KG, priority 2006, published 2008).

On to `OC[C@H]1O[C@@H](Oc2ccc(O)cc2)[C@H](O)[C@@H](O)[C@@H]1O` [beta arbutin, hydroquinone glucoside], for which the “inhibition of skin pigmentation” value in test [1] is on record as 31%. The “decrease of pigmentation in comparison to the negative control” value in test [2] (after 2 days) came to 52.4%; in test [2] (after 6 days), 44.2%.

B1: transforming growth factor beta 2 (protein, UniProt P61812 303-414, looked up)
Transforming growth factor …: ALDAAYCFRNVQDNCCLRPLYIDFKRDLGWKWIHEPKGYNANFCAGACPYLWSSDTQHSRVLSLYNTINPEASASPCCVSQDLEPLTILYYIGKTPKIEQLSNMIVKSCKCS
For the molecule B1, the “inhibition of hair matrix cell proliferation versus untreated control” value in test [3] (incubated day 0 to day 6, read at day 6) is reported as 24.8%; in test [3] (incubated day 14 to day 21, read at day 21), 36.1%.
